Assay results taken from PMC12042115 (mLife, 2025).
Like-named read-outs stand apart in the source and are kept apart here.

System: wild‐type BCG cells
Assay type: cell-based, M. bovis BCG
Details: for Mean_Ratio (GDI5755_3d vs DMSO_3d): down-regulated, 3 d; for Mean Ratio: GDI5755_2d vs DMSO_2d; for Mean Ratio / Mean Ratio (GDI5755_2d vs DMSO_2d): up-regulated; for Mean Ratio (GDI5755_2d vs DMSO_2d): 2d

With `O=C(Oc1ccc(Cl)cc1)c1ccc(N2CCOCC2)c([N+](=O)[O-])c1` [GDI‐5755] the “Mean_Ratio (GDI5755_3d vs DMSO_3d)” value (protein A0A0H3MBJ1, BCG_2011c (Rv1994c), HTH-type transcriptional regulator CmtR) was 0.738, the “Mean Ratio” value (protein A0A0H3MBK5 Phosphate-binding protein PstS3) was 1.29 and the “Mean Ratio” value (protein A0A0H3MBM4 NAD(P)H nitroreductase acg) was 1.30. For the same compound, the “Mean Ratio” value (protein A0A0H3MBN2 Nuclear transport factor 2 domain-containing protein) was 1.27, the “Mean Ratio” value (protein A0A0H3MBN6 Amidohydrolase 3 domain-containing protein) was 1.27 and the “Mean Ratio (GDI5755_2d vs DMSO_2d)” value (protein A0A0H3MBR5 Probable acetyl-/propionyl-coa carboxylase (Beta subunit) accD2) was 1.32. The “Mean Ratio” value (protein A0A0H3MBT4 Probable conserved lipoprotein LppL) was 1.32, the “Mean Ratio” value (protein A0A0H3MBZ9 Probable conserved transmembrane protein alanine and leucine rich) was 1.27 and the “Mean_Ratio (GDI5755_3d vs DMSO_3d)” value (protein A0A0H3MC34, BCG_2260 (Rv2243), Malonyl CoA-acyl carrier protein transacylase fabD) was 0.7. The “Mean_Ratio (GDI5755_3d vs DMSO_3d)” value (protein A0A0H3MC70, BCG_1203c (Rv1141c), Probable enoyl-CoA hydratase echA11) was 0.7, the “Mean_Ratio (GDI5755_3d vs DMSO_3d)” value (protein A0A0H3MC82, BCG_2311 (Rv2295), CbrC family protein) was 0.745 and the “Mean_Ratio (GDI5755_3d vs DMSO_3d)” value (protein A0A0H3MC88, BCG_2317 (Rv2301), Cutinase) was 0.7. The “Mean Ratio” value (protein A0A0H3MCA1 Alpha/beta hydrolase) was 1.25, the “Mean_Ratio (GDI5755_3d vs DMSO_3d)” value (protein A0A0H3MCB3, BCG_1267 (Rv1207), Dihydropteroate synthase) was 0.7 and the “Mean Ratio” value (protein A0A0H3MCC0 Probable tetronasin-transport atp-binding protein ABC transporter) was 1.26. The “Mean Ratio” value (protein A0A0H3MCD2 Transmembrane ATP-binding protein ABC transporter) was 1.25, the “Mean_Ratio (GDI5755_3d vs DMSO_3d)” value (protein A0A0H3MCL1, BCG_1383 (Rv1322), ATP/GTP-binding protein) was 0.7 and the “Mean_Ratio (GDI5755_3d vs DMSO_3d)” value (protein A0A0H3MCL6, BCG_2443c, AAA+ ATPase domain-containing protein) was 0.751. For the same compound, the “Mean Ratio” value (protein A0A0H3MD23 Possible exported conserved protein) was 1.30, the “Mean_Ratio (GDI5755_3d vs DMSO_3d)” value (protein A0A0H3MDI1, BCG_3731c (Rv1665), Possible chalcone synthase pks11) was 0.7 and the “Mean_Ratio (GDI5755_3d vs DMSO_3d)” value (protein A0A0H3MDQ0, BCG_2970c (Rv2949c), Chorismate pyruvate-lyase) was 0.746. The “Mean_Ratio (GDI5755_3d vs DMSO_3d)” value (protein A0A0H3MDQ9, BCG_2994c (Rv2972c), Possible conserved membrane or exported protein) was 0.756, the “Mean Ratio (GDI5755_2d vs DMSO_2d)” value (protein A0A0H3MDS7 Probable conserved lipoprotein lppZ) was 1.35 and the “Mean Ratio” value (protein A0A0H3ME30 Possible oxidoreductase) was 1.30. For the same compound, the “Mean_Ratio (GDI5755_3d vs DMSO_3d)” value (protein A0A0H3ME93, BCG_1959 (Rv1920), Probable membrane protein) was 0.752, the “Mean Ratio” value (protein A0A0H3MEA5 methanethiol S-methyltransferase) was 1.26 and the “Mean Ratio” value (protein A0A0H3MEB3 HNH nuclease domain-containing protein) was 1.25. The “Mean_Ratio (GDI5755_3d vs DMSO_3d)” value (protein A0A0H3MEK1, BCG_3412 (Rv3342), Possible methyltransferase (Methylase)) was 0.7, the “Mean_Ratio (GDI5755_3d vs DMSO_3d)” value (protein A0A0H3MER9, BCG_3475c (Rv3405c), HTH-type transcriptional repressor) was 0.758 and the “Mean_Ratio (GDI5755_3d vs DMSO_3d)” value (protein A0A0H3MEW3, BCG_3538c (Rv3473c), Possible peroxidase bpoA) was 0.749. For the same compound, the “Mean Ratio (GDI5755_2d vs DMSO_2d)” value (protein A0A0H3MF17 Serine protease Hip1) was 1.35, the “Mean Ratio” value (protein A0A0H3MF23 Possible CoA-transferase (Beta subunit)) was 1.25 and the “Mean Ratio” value (protein A0A0H3MF38 Glycerol-3-phosphate dehydrogenase) was 1.31. For the same compound, the “Mean_Ratio (GDI5755_3d vs DMSO_3d)” value (protein A0A0H3MF62, BCG_2297c (Rv2282c), Probable transcription regulator (LysR family)) was 0.737, the “Mean_Ratio (GDI5755_3d vs DMSO_3d)” value (protein A0A0H3MFB8, BCG_3726c, Protease) was 0.739 and the “Mean Ratio” value (protein A0A0H3MFJ3 Transcriptional regulatory protein (Probably arsR-family)) was 1.25. For the same compound, the “Mean Ratio (GDI5755_2d vs DMSO_2d)” value (protein A0A0H3MFK9 DSBA-like thioredoxin domain-containing protein) was 1.33, the “Mean Ratio (GDI5755_2d vs DMSO_2d)” value (protein A0A0H3MFL5 histidine kinase) was 1.35 and the “Mean Ratio” value (protein A0A0H3MFN8 Probable O-antigen/lipopolysaccharide transport integral membrane protein ABC transporter rfbD) was 1.29. For the same compound, the “Mean_Ratio (GDI5755_3d vs DMSO_3d)” value (protein A0A0H3MFR0, BCG_2539c (Rv2518c), L,D-transpeptidase 2, ldtB/L,D-transpeptidase LdtMt2) was 0.7, the “Mean Ratio” value (protein A0A0H3MFS0 Acyltransferase) was 1.28 and the “Mean Ratio” value (protein A0A0H3MFX4 Protein translocase subunit SecD) was 1.31. The “Mean_Ratio (GDI5755_3d vs DMSO_3d)” value (protein A0A0H3MG15, BCG_2663 (Rv2636), O-phosphotransferase) was 0.7, the “Mean Ratio” value (protein A0A0H3MG43 Probable antibiotic-transport ATP-binding protein ABC transporter) was 1.28 and the “Mean Ratio” value (protein A0A0H3MG65 Probable conserved transmembrane protein) was 1.25. For the same compound, the “Mean Ratio” value (protein A0A0H3MG92 Conserved 35 kDa alanine rich protein) was 1.27, the “Mean Ratio” value (protein A0A0H3MGD9 Metal-dependent hydrolase) was 1.32 and the “Mean_Ratio (GDI5755_3d vs DMSO_3d)” value (protein A0A0H3MGM3, BCG_2905 (Rv2884), Probable transcriptional regulatory protein) was 0.744. For the same compound, the “Mean Ratio” value (protein A0A0H3MGP1 Probable transcriptional regulatory protein (Probably tetR-family)) was 1.30, the “Mean Ratio” value (protein A0A0H3MGS1 Probable integral membrane protein) was 1.30 and the “Mean_Ratio (GDI5755_3d vs DMSO_3d)” value (protein A0A0H3MGU7, BCG_3025c (Rv3003c), Acetolactate synthase) was 0.7. The “Mean Ratio” value (protein A0A0H3MH35 Hydroxylase) was 1.30, the “Mean_Ratio (GDI5755_3d vs DMSO_3d)” value (protein A0A0H3MH58, BCG_3141 (Rv3116), PRobable molybdenum cofactor biosynthesis protein moeB2) was 0.7 and the “Mean_Ratio (GDI5755_3d vs DMSO_3d)” value (protein A0A0H3MH84, BCG_3167c (Rv3144c), PPE family protein) was 0.7. The “Mean_Ratio (GDI5755_3d vs DMSO_3d)” value (protein A0A0H3MHH8, BCG_3287c (Rv3258c), DUF3499 domain-containing protein) was 0.757, the “Mean Ratio (GDI5755_2d vs DMSO_2d)” value (protein A0A0H3MHJ0 Probable metal cation-transporting P-type atpase C ctpC) was 1.38 and the “Mean_Ratio (GDI5755_3d vs DMSO_3d)” value (protein A0A0H3MIJ3, BCG_3667c (Rv3603c), Conserved hypothetical alanine and leucine rich protein) was 0.7. The “Mean Ratio” value (protein A0A0H3MJ41 Uncharacterized protein) was 1.29, the “Mean_Ratio (GDI5755_3d vs DMSO_3d)” value (protein A1KF76, BCG_0293c (Rv0255c), Cobyric acid synthase) was 0.7 and the “Mean Ratio” value (protein A1KFU9 Heparin-binding hemagglutinin) was 1.29. The “Mean_Ratio (GDI5755_3d vs DMSO_3d)” value (protein A1KGJ8, BCG_0767 (Rv0717), Small ribosomal subunit protein uS14B) was 0.746, the “Mean Ratio” value (protein A1KHB8 Signal transduction histidine-protein kinase/phosphatase MprB) was 1.30 and the “Mean_Ratio (GDI5755_3d vs DMSO_3d)” value (protein A1KHH0, BCG_1089 (Rv1031), Potassium-transporting ATPase KdpC subunit) was 0.7. The “Mean Ratio” value (protein A1KI12 Sec-independent protein translocase protein TatB) was 1.27 and the “Mean_Ratio (GDI5755_3d vs DMSO_3d)” value (protein A1KI86, BCG_1358 (Rv1298), Large ribosomal subunit protein bL31) was 0.7.
